Source: US20210252009A1, “COMPOSITION COMPRISING FLT3 INHIBITOR AS EFFECTIVE INGREDIENT FOR INHIBITING DRUG RESISTANCE IN CHRONIC MYELOGENOUS LEUKEMIA” (INDUSTRY-ACADEMIC COOPERATION FOUNDATION, YONSEI UNIVERSITY, priority 2018, published 2021)

What was measured:
[1] = system: FLT3-transformed K562 cells; assay: MTT assay, inhibitors against FLT3 subfactors co-treated with imatinib; type: cell-based; conditions: for Apoptotic effect and drug tolerance (MTT) when co-treated with imatinib: imatinib 1 μM plus inhibitor at three concentrations, 4 days, FIGS. 9a-9e; for Apoptotic effect and drug tolerance when JAK, STAT3, TAZ, TEAD and CD36 are inhibited: summary statement in the description, treatment conditions not given
Protocol: AZD1480 (Selleckem, Cat. No. S2162) was used as a JAK inhibitor, C188-9 (Selleckem, Cat. No. S8605) was used as a STAT3 inhibitor, verteporfin (Selleckem, Cat. No. S1786) was used as a TAZ inhibitor, flufenamic acid (Selleckem, Cat. No. S4268) was used as a TEAD inhibitor, and sulfo-N-succinimidyl oleate (Cayman, Cat. No. 11211) was used as a CD36 inhibitor. […] After treating with each inhibitor for 4 days, MTT assay was conducted in the same manner as in Test Example 5 and absorbance was measured at 540 nm using a multiplate reader (FIG. 9).

[2] = system: FLT3-transformed K562 cells; assay: Drug tolerance test: surviving cells counted after 17 days of anticancer drug treatment; type: cell-based; conditions: K562 FLT3, 1 μM drug
Protocol: Drug tolerance was tested using FLT3-transformed K562 cells (ATCC, CCL-243) mimicking the blast crisis of chronic myelogenous leukemia.
After administering three anticancer drugs against chronic myelogenous leukemia for 17 days to the FLT3-transformed K562 cells, the surviving cells were counted (Table 1).

[3] = system: wild-type (WT) K562 cells; assay: as above; type: cell-based; conditions: 1 μM drug
[4] = system: FLT3-transformed K562 cells having resistance to imatinib; assay: MTT assay, FLT3 inhibitors co-administered with imatinib; type: cell-based; conditions: 1 μM imatinib alone, 5 days
Protocol: The cells were cultured using DMEM (Hyclone) containing 10% FBS (Gibco). […] The concentration of the FLT3 inhibitor was as follows. […] 5 days later, after adding 100 μL of an MTT labeling reagent included in a cell proliferation kit (Roche) to each well for 2 hours and then treating with […] of a solubilization solution for 24 hours, absorbance was measured at a wavelength of 540 nm using a multiplate reader (FIGS. 8a-8c).

[5] = system: FLT3-transformed K562 cells having resistance to three drugs (imatinib, dasatinib and nilotinib); conditions: single agent; FIGS. 4-7

For `Cc1cc(Nc2nc(N[C@@H](C)c3ncc(F)cn3)ncc2Cl)n[nH]1` [AZD1480], the “Apoptotic effect and drug tolerance (MTT) when co-treated with imatinib” value [1] was “remarkably enhanced apoptotic effect and inhibited drug tolerance” and the “Apoptotic effect and drug tolerance when JAK, STAT3, TAZ, TEAD and CD36 are inhibited” value [1] was “apoptotic effect is enhanced remarkably and drug tolerance is inhibited”.

In the case of `COc1ccc(S(=O)(=O)Nc2cc(-c3c(O)ccc4ccccc34)c(O)c3ccccc23)cc1` [C188-9], the “Apoptotic effect and drug tolerance (MTT) when co-treated with imatinib” value [1] is reported as “remarkably enhanced apoptotic effect and inhibited drug tolerance” and the “Apoptotic effect and drug tolerance when JAK, STAT3, TAZ, TEAD and CD36 are inhibited” value [1] is reported as “apoptotic effect is enhanced remarkably and drug tolerance is inhibited”.

In the case of `Cc1nc(Nc2ncc(C(=O)Nc3c(C)cccc3Cl)s2)cc(N2CCN(CCO)CC2)n1` [dasatinib], the Cell number ([2]; Day 5) is reported as 1.57 × 10^5, the Cell number ([2]; Day 9) is reported as 2.87 × 10^5 and the Cell number ([2]; Day 11) is reported as 2.23 × 10^5. For the same compound, the Cell number ([2]; Day 13) was 2.26 × 10^5, the Cell number ([2]; Day 15) was 1.76 × 10^5 and the Cell number ([2]; Day 17) was 9.33 × 10^5. The Cell number ([3]; Day 0) was 1 × 10^5, the Cell number ([3]; Day 5) was 0.8075 × 10^5 and the Cell number ([3]; Day 9) was 0.35 × 10^5. The Cell number ([3]; Day 11) was 0.47 × 10^5, the Cell number ([3]; Day 13) was 0 × 10^5 and the Cell number ([3]; Day 15) was 0 × 10^5. For the same compound, the Cell number ([3]; Day 17) was 0 × 10^5.

`O=C(O)c1ccccc1Nc1cccc(C(F)(F)F)c1` [flufenamic acid] was tested, and the “Apoptotic effect and drug tolerance (MTT) when co-treated with imatinib” value [1] was “remarkably enhanced apoptotic effect and inhibited drug tolerance” and the “Apoptotic effect and drug tolerance when JAK, STAT3, TAZ, TEAD and CD36 are inhibited” value [1] was “apoptotic effect is enhanced remarkably and drug tolerance is inhibited”.

`Cc1ccc(NC(=O)c2ccc(CN3CCN(C)CC3)cc2)cc1Nc1nccc(-c2cccnc2)n1` [imatinib] was tested, and the “Killing of FLT3-overexpressed K562 cells (MTT), imatinib only” value [4] was “could not be killed”, the Cell number ([2]; Day 0) was 1 × 10^5 and the Cell number ([2]; Day 5) was 1.013 × 10^5. For the same compound, the Cell number ([2]; Day 9) was 1.905 × 10^5, the Cell number ([2]; Day 11) was 1.82 × 10^5 and the Cell number ([2]; Day 15) was 3.17 × 10^5. The Cell number ([2]; Day 17) was 14.3 × 10^5, the “Killing of resistant cells, treated only with the one agent” value [5] was “hardly killed” and the Cell number ([3]; Day 0) was 1 × 10^5. For the same compound, the Cell number ([3]; Day 5) was 0.485 × 10^5, the Cell number ([3]; Day 9) was 0.058 × 10^5 and the Cell number ([3]; Day 11) was 0.52 × 10^5. The Cell number ([3]; Day 13) was 0.175 × 10^5, the Cell number ([3]; Day 15) was 0 × 10^5 and the Cell number ([3]; Day 17) was 0 × 10^5.

In the case of `Cc1cn(-c2cc(NC(=O)c3ccc(C)c(Nc4nccc(-c5cccnc5)n4)c3)cc(C(F)(F)F)c2)cn1` [nilotinib], the Cell number ([2]; Day 0) is reported as 1 × 10^5, the Cell number ([2]; Day 5) is reported as 2.0975 × 10^5 and the Cell number ([2]; Day 9) is reported as 1.38 × 10^5. For the same compound, the Cell number ([2]; Day 11) was 2.64 × 10^5, the Cell number ([2]; Day 13) was 2.84 × 10^5 and the Cell number ([2]; Day 15) was 4.52 × 10^5. The Cell number ([2]; Day 17) was 17.1 × 10^5, the “Killing of resistant cells, treated only with the one agent” value [5] was “hardly killed” and the Cell number ([3]; Day 0) was 1 × 10^5. For the same compound, the Cell number ([3]; Day 5) was 0.9675 × 10^5, the Cell number ([3]; Day 9) was 0.23 × 10^5 and the Cell number ([3]; Day 11) was 0.76 × 10^5. For the same compound, the Cell number ([3]; Day 13) was 0.09 × 10^5, the Cell number ([3]; Day 15) was 0 × 10^5 and the Cell number ([3]; Day 17) was 0 × 10^5.

In the case of `CCCCCCCC/C=C\CCCCCCCC(=O)ON1C(=O)CC(S(=O)(=O)O)C1=O` (centres unmarked) [sulfo-N-succinimidyl oleate], the “Apoptotic effect and drug tolerance (MTT) when co-treated with imatinib” value [1] is reported as “remarkably enhanced apoptotic effect and inhibited drug tolerance” and the “Apoptotic effect and drug tolerance when JAK, STAT3, TAZ, TEAD and CD36 are inhibited” value [1] is reported as “apoptotic effect is enhanced remarkably and drug tolerance is inhibited”.

In the case of verteporfin, the “Apoptotic effect and drug tolerance (MTT) when co-treated with imatinib” value [1] is reported as “remarkably enhanced apoptotic effect and inhibited drug tolerance” and the “Apoptotic effect and drug tolerance when JAK, STAT3, TAZ, TEAD and CD36 are inhibited” value [1] is reported as “apoptotic effect is enhanced remarkably and drug tolerance is inhibited”.
